Measurements published in the NIST ThermoML archive (doi:10.1016/j.fluid.2009.11.007).

Test: xn = mol fraction of the nth substance listed
Conditions: Gas, Vibrating tube method

CCCCCCCCCCCCCCCC(=O)O [hexadecanoic acid] + O=C=O
Conditions | mass density [kg/m3]
313 K, 12110 kPa, x1 = 0.0003534 | 724.5
313 K, 12150 kPa, x1 = 0.0003534 | 725.8
313 K, 12360 kPa, x1 = 0.0003534 | 731.2
313 K, 12530 kPa, x1 = 0.0003534 | 735.3
313 K, 12770 kPa, x1 = 0.0003534 | 741
313 K, 12930 kPa, x1 = 0.0003534 | 744.7
313 K, 13150 kPa, x1 = 0.0003534 | 749.3
313 K, 13330 kPa, x1 = 0.0003534 | 753
313 K, 13680 kPa, x1 = 0.0003534 | 759.8
313 K, 13940 kPa, x1 = 0.0003534 | 764.4
313 K, 14120 kPa, x1 = 0.0003534 | 767.7
313 K, 14410 kPa, x1 = 0.0003534 | 772.7
313 K, 14570 kPa, x1 = 0.0004968 | 774.5
313 K, 14650 kPa, x1 = 0.0003534 | 776.6
313 K, 14940 kPa, x1 = 0.0005357 | 780.5
313 K, 14960 kPa, x1 = 0.0004968 | 780.9
313 K, 15030 kPa, x1 = 0.0003534 | 782.7
313 K, 15570 kPa, x1 = 0.0003534 | 790.5
313 K, 15970 kPa, x1 = 0.0004968 | 795.6
313 K, 16020 kPa, x1 = 0.0005357 | 795.7
313 K, 16050 kPa, x1 = 0.0003534 | 797
313 K, 16230 kPa, x1 = 0.0005357 | 798.5
313 K, 16430 kPa, x1 = 0.0005357 | 801.3
313 K, 16610 kPa, x1 = 0.0005357 | 803.4
313 K, 16820 kPa, x1 = 0.0005357 | 806
313 K, 17030 kPa, x1 = 0.0005357 | 808.5
313 K, 17040 kPa, x1 = 0.0003534 | 810.1
313 K, 17070 kPa, x1 = 0.0006302 | 809.1
313 K, 17120 kPa, x1 = 0.0004968 | 810
313 K, 17500 kPa, x1 = 0.0006302 | 814.3
313 K, 17610 kPa, x1 = 0.0006348 | 816.9
313 K, 17620 kPa, x1 = 0.0004968 | 815.9
313 K, 17810 kPa, x1 = 0.0006348 | 819
313 K, 17970 kPa, x1 = 0.0006302 | 819.5
313 K, 18010 kPa, x1 = 0.0006348 | 821
313 K, 18030 kPa, x1 = 0.0003534 | 821.3
313 K, 18050 kPa, x1 = 0.0004968 | 820.6
313 K, 18070 kPa, x1 = 0.0005357 | 820
313 K, 18180 kPa, x1 = 0.0006348 | 823.1
313 K, 18300 kPa, x1 = 0.0006348 | 824.3
313 K, 18400 kPa, x1 = 0.0006348 | 825.2
313 K, 18510 kPa, x1 = 0.0006348 | 826.4
313 K, 18600 kPa, x1 = 0.0006348 | 827.4
313 K, 18700 kPa, x1 = 0.0006348 | 828.4
313 K, 18790 kPa, x1 = 0.0006348 | 829.4
313 K, 18910 kPa, x1 = 0.0006348 | 830.6
313 K, 18990 kPa, x1 = 0.0006302 | 830.2
313 K, 19000 kPa, x1 = 0.0004968 | 830.5
313 K, 19040 kPa, x1 = 0.0003534 | 831.8
313 K, 19070 kPa, x1 = 0.0005357 | 830.9
313 K, 19070 kPa, x1 = 0.0006348 | 832.2
313 K, 19960 kPa, x1 = 0.0004968 | 839.8
313 K, 19990 kPa, x1 = 0.0006302 | 839.7
313 K, 20050 kPa, x1 = 0.0003534 | 841.4
313 K, 20060 kPa, x1 = 0.0005357 | 840.4
313 K, 20090 kPa, x1 = 0.0006348 | 841.8
313 K, 20150 kPa, x1 = 0.0007923 | 843.3
313 K, 20300 kPa, x1 = 0.0007923 | 844.6
313 K, 20540 kPa, x1 = 0.0007923 | 846.7
313 K, 20740 kPa, x1 = 0.0007923 | 848.5
313 K, 20940 kPa, x1 = 0.0007923 | 850.2
313 K, 21000 kPa, x1 = 0.0006302 | 848.7
313 K, 21010 kPa, x1 = 0.0006348 | 849.8
313 K, 21020 kPa, x1 = 0.0004968 | 849.3
313 K, 21040 kPa, x1 = 0.0003534 | 850.3
313 K, 21050 kPa, x1 = 0.0005357 | 849.1
313 K, 21120 kPa, x1 = 0.0007923 | 851.7
313 K, 21300 kPa, x1 = 0.0007923 | 853.3
313 K, 21520 kPa, x1 = 0.0007923 | 855
313 K, 21700 kPa, x1 = 0.0008682 | 855
313 K, 21710 kPa, x1 = 0.0007923 | 856.7
313 K, 21970 kPa, x1 = 0.0007923 | 858.7
313 K, 21980 kPa, x1 = 0.0003534 | 858
313 K, 22020 kPa, x1 = 0.0004968 | 857.5
313 K, 22020 kPa, x1 = 0.0006348 | 858.2
313 K, 22020 kPa, x1 = 0.0008682 | 857.3
313 K, 22030 kPa, x1 = 0.0005357 | 857.3
313 K, 22050 kPa, x1 = 0.0006302 | 857.5
313 K, 22230 kPa, x1 = 0.0007923 | 860.8
313 K, 22470 kPa, x1 = 0.0008682 | 861
313 K, 22650 kPa, x1 = 0.0007923 | 864
313 K, 22790 kPa, x1 = 0.0004968 | 863.5
313 K, 22910 kPa, x1 = 0.0007923 | 865.9
313 K, 22930 kPa, x1 = 0.0008981 | 864.8
313 K, 22990 kPa, x1 = 0.0003534 | 866
313 K, 23000 kPa, x1 = 0.0006302 | 864.9
313 K, 23030 kPa, x1 = 0.0005357 | 865.1
313 K, 23050 kPa, x1 = 0.0006348 | 866
313 K, 23070 kPa, x1 = 0.0008682 | 865.7
313 K, 23280 kPa, x1 = 0.0008981 | 867.3
313 K, 23520 kPa, x1 = 0.0007923 | 868.9
313 K, 23550 kPa, x1 = 0.0008682 | 869.1
313 K, 23570 kPa, x1 = 0.0008981 | 869.5
313 K, 23790 kPa, x1 = 0.0006348 | 871.5
313 K, 23810 kPa, x1 = 0.0008981 | 871.1
313 K, 23990 kPa, x1 = 0.0005357 | 872.2
313 K, 24000 kPa, x1 = 0.0006302 | 872.3
313 K, 24010 kPa, x1 = 0.0004968 | 872.7
313 K, 24010 kPa, x1 = 0.0008981 | 872.6
313 K, 24020 kPa, x1 = 0.0007923 | 871.6
313 K, 24040 kPa, x1 = 0.0008682 | 872.7
313 K, 24050 kPa, x1 = 0.0003534 | 873.7
313 K, 24460 kPa, x1 = 0.0008682 | 875.8
313 K, 24640 kPa, x1 = 0.0005357 | 876.7
313 K, 24740 kPa, x1 = 0.0006302 | 877.4
313 K, 24780 kPa, x1 = 0.0008981 | 877.9
313 K, 25030 kPa, x1 = 0.0004968 | 879.6
318 K, 10140 kPa, x1 = 0.0001436 | 535.9
318 K, 10290 kPa, x1 = 0.0001436 | 551.9
318 K, 10550 kPa, x1 = 0.0001436 | 577.8
318 K, 10890 kPa, x1 = 0.0001436 | 604.2
318 K, 11230 kPa, x1 = 0.0001436 | 626.2
318 K, 11520 kPa, x1 = 0.0001436 | 641.2
318 K, 11870 kPa, x1 = 0.0001436 | 657.3
318 K, 12190 kPa, x1 = 0.0001436 | 670.6
318 K, 12480 kPa, x1 = 0.0001436 | 680.9
318 K, 12820 kPa, x1 = 0.0001436 | 692
318 K, 13110 kPa, x1 = 0.0001436 | 700.3
318 K, 13390 kPa, x1 = 0.0001436 | 708.3
318 K, 13730 kPa, x1 = 0.0001436 | 716.8
318 K, 14030 kPa, x1 = 0.0001436 | 723.9
318 K, 14520 kPa, x1 = 0.0001436 | 734.8
318 K, 14990 kPa, x1 = 0.0001436 | 744
318 K, 16050 kPa, x1 = 0.0001436 | 762.8
318 K, 17010 kPa, x1 = 0.0001436 | 777.4
318 K, 17690 kPa, x1 = 0.0001436 | 786.8
318 K, 18080 kPa, x1 = 0.0001436 | 791.8
318 K, 18990 kPa, x1 = 0.0001436 | 802.8
318 K, 19750 kPa, x1 = 0.0001436 | 811.4
318 K, 21720 kPa, x1 = 0.001828 | 831.3
318 K, 21990 kPa, x1 = 0.001828 | 833.9
318 K, 22510 kPa, x1 = 0.001828 | 838.4
318 K, 23010 kPa, x1 = 0.001828 | 842.7
318 K, 23350 kPa, x1 = 0.001112 | 845.5
318 K, 23520 kPa, x1 = 0.001828 | 846.9
318 K, 23920 kPa, x1 = 0.001112 | 849.8
318 K, 24050 kPa, x1 = 0.001112 | 850.8
318 K, 24050 kPa, x1 = 0.001828 | 850.9
318 K, 24090 kPa, x1 = 0.001112 | 851.1
318 K, 24270 kPa, x1 = 0.001112 | 852.5
318 K, 24430 kPa, x1 = 0.001112 | 853.7
318 K, 24510 kPa, x1 = 0.001112 | 854.2
318 K, 24560 kPa, x1 = 0.001828 | 854.7
318 K, 24610 kPa, x1 = 0.001112 | 855
318 K, 24770 kPa, x1 = 0.001112 | 856.3
318 K, 24930 kPa, x1 = 0.001112 | 857.5
318 K, 25040 kPa, x1 = 0.001112 | 858.3
